This is an account of results in PubChem BioAssay AID1259407 (Chemical Carcinogenesis Research Information System (CCRIS), 2018).

Calls of active or inactive are those of the source. No rule for the calls is given here.

This data set has as its system CCRIS mutagenicity, Ames/micronucleus/aberration tests. Put plainly: CCRIS mutagenicity studies. As to conditions: Test System: AMES SALMONELLA TYPHIMURIUM

For `COc1c2occc2cc2ccc(=O)oc12`, the mutagenic call is “inactive; negative” (Strain/Indicator: TA92, Metabolic Activation: NONE, Method: SPOT TEST); “inactive; negative” (Strain/Indicator: TA92, Metabolic Activation: RAT, LIVER, S-9, AROCLOR 1254, Method: SPOT TEST); “inactive; negative” (Strain/Indicator: TA94, Metabolic Activation: NONE, Method: SPOT TEST); “inactive; negative” (Strain/Indicator: TA94, Metabolic Activation: RAT, LIVER, S-9, AROCLOR 1254, Method: SPOT TEST); “inactive; negative” (Strain/Indicator: TA97, Metabolic Activation: NONE, Method: SPOT TEST); “inactive; negative” (Strain/Indicator: TA97, Metabolic Activation: RAT, LIVER, S-9, AROCLOR 1254, Method: SPOT TEST). Moreover, the mutagenic call by setting is: (Strain/Indicator: TA98, Metabolic Activation: HAMSTER, LIVER, S-9 (30%), AROCLOR 1254, Method: PREINCUBATION) “inactive; negative”; (Strain/Indicator: TA98, Metabolic Activation: NONE, Method: PREINCUBATION) “inactive; negative”; (Strain/Indicator: TA98, Metabolic Activation: NONE, Method: SPOT TEST) “inactive; negative”; (Strain/Indicator: TA98, Metabolic Activation: NONE, Method: STANDARD PLATE) “inactive; negative”; (Strain/Indicator: TA98, Metabolic Activation: RAT, LIVER, S-9, AROCLOR 1254, Method: SPOT TEST) “inactive; negative”; (Strain/Indicator: TA98, Metabolic Activation: RAT, LIVER, S-9, PHENOBARBITAL, Method: STANDARD PLATE) “inactive; negative”. The mutagenic call by setting is: (Strain/Indicator: TA100, Metabolic Activation: HAMSTER, LIVER, S-9 (5%, 10% OR 30%), AROCLOR 1254, Method: PREINCUBATION) “active; positive”; (Strain/Indicator: TA100, Metabolic Activation: NONE, Method: PREINCUBATION) “inactive; negative”; (Strain/Indicator: TA100, Metabolic Activation: NONE, Method: SPOT TEST) “inactive; negative”; (Strain/Indicator: TA100, Metabolic Activation: RAT, LIVER, S-9 (10%), AROCLOR 1254, Method: PREINCUBATION) “inactive; negative”; (Strain/Indicator: TA100, Metabolic Activation: RAT, LIVER, S-9, AROCLOR 1254, Method: SPOT TEST) “inactive; negative”; (Strain/Indicator: TA102, Metabolic Activation: HAMSTER, LIVER, S-9 (5%), AROCLOR 1254, Method: PREINCUBATION) “active; positive”. The mutagenic call is, setting by setting: (Strain/Indicator: TA102, Metabolic Activation: NONE, Method: PREINCUBATION) “inactive; negative”; (Strain/Indicator: TA102, Metabolic Activation: NONE, Method: SPOT TEST) “inactive; negative”; (Strain/Indicator: TA102, Metabolic Activation: RAT, LIVER, S-9 (5%), AROCLOR 1254, Method: PREINCUBATION) “active; positive”; (Strain/Indicator: TA102, Metabolic Activation: RAT, LIVER, S-9, AROCLOR 1254, Method: SPOT TEST) “inactive; negative”; (Strain/Indicator: TA104, Metabolic Activation: HAMSTER, LIVER, S-9 (30%), AROCLOR 1254, Method: PREINCUBATION) “active; positive”; (Strain/Indicator: TA104, Metabolic Activation: RAT, LIVER, S-9 (5% OR 10%), AROCLOR 1254, Method: PREINCUBATION) “active; positive”. The mutagenic call is “active; positive” (Strain/Indicator: TA104, Metabolic Activation: RAT, LIVER, S-9(30%), AROCLOR 1254, Method: PREINCUBATION); “inactive; negative” (Strain/Indicator: TA1535, Metabolic Activation: HAMSTER, LIVER, S-9 (30%), AROCLOR 1254, Method: PREINCUBATION); “inactive; negative” (Strain/Indicator: TA1535, Metabolic Activation: NONE, Method: PREINCUBATION); “inactive; negative” (Strain/Indicator: TA1535, Metabolic Activation: RAT, LIVER, S-9 (30%), AROCLOR 1254, Method: PREINCUBATION).

For the compound `Cc1cccc2ccc3c4ccccc4ccc3c12`, the mutagenic call was “inactive; negative” (Strain/Indicator: TA100, Metabolic Activation: RAT, LIVER, MICROSOMES, 4-METHYLCHRYSENE, Method: STANDARD PLATE); “active; positive” (Strain/Indicator: TA100, Metabolic Activation: RAT, LIVER, MICROSOMES, AROCLOR 1254, Method: STANDARD PLATE); “inactive; negative” (Strain/Indicator: TA100, Metabolic Activation: RAT, LIVER, MICROSOMES, Method: STANDARD PLATE).

For the compound `Nc1ccc(-c2ccc(-c3ccc(-c4ccc(N)cc4)cc3)cc2)cc1`, the mutagenic call is, setting by setting: (Strain/Indicator: TA1538, Metabolic Activation: NONE, Method: STANDARD PLATE) “inactive; negative”; (Strain/Indicator: TA1538, Metabolic Activation: RAT, LIVER, S-9, AROCLOR 1254, Method: STANDARD PLATE) “inactive; negative”.
